Assay results taken from ChEMBL document CHEMBL5113512, “β-Nitrostyrene derivatives as broad range potential antifungal agents targeting fungal cell wall” (2022).
Values after ≈ are worked out from the molar mass of the structure shown. Active and inactive are the calls of the source. The calls are words filed in the database; no cut-off is given here.

What was measured:
Candida albicans [1] = experiment: Induction of ROS generation in Candida albicans ATCC 24433 assessed as increase in relative fluorescence unit at sub-inhibitory concentration incubated for 1 hr by DCFDA staining-based flow cytometric analysis; type: functional, organism-based
Candida [2] = experiment: Upregulation of PLB5 gene expression in Candida cells; type: functional, cell-based
Candida parapsilosis [3] = experiment: Synergistic antifungal activity against Candida parapsilosis ATCC 90018 assessed as inhibition of fungal growth incubated for 48 hrs in presence of SDS by checker board assay; type: functional; conditions: Lodderomyces parapsilosis
Candida albicans [4] = experiment: Synergistic antifungal activity against wild type Candida albicans SN152 assessed as inhibition of fungal growth incubated for 48 hrs in presence of Amphotericin B by checker board assay; type: functional
[Candida] auris [5] = Synergistic antifungal activity against Candida auris CBS10913 assessed as fractional inhibitory concentration index incubated for 48 hrs in presence of SDS by checker board assay; type: functional, Candidozyma auris
Candida [6] = experiment: Downregulation of CMP1 gene expression in Candida cells; type: functional, cell-based
Candida albicans [7] = experiment: Synergistic antifungal activity against Candida albicans SN152 harboring CAS5 mutant assessed as inhibition of fungal growth incubated for 48 hrs in presence of Amphotericin B by checker board assay; type: functional
Candida albicans [8] = experiment: Synergistic antifungal activity against Candida albicans SN152 harboring CAS5 mutant assessed as Amphotericin B MIC incubated for 48 hrs by checker board assay; type: functional
Candida parapsilosis [9] = experiment: Synergistic antifungal activity against Candida parapsilosis ATCC 90018 assessed as inhibition of fungal growth incubated for 48 hrs in presence of Congo red by checker board assay; type: functional; conditions: Lodderomyces parapsilosis
[Candida] auris [10] = Synergistic antifungal activity against Candida auris CBS10913 assessed as fractional inhibitory concentration index incubated for 48 hrs in presence of Congo red by checker board assay; type: functional, Candidozyma auris
Candida albicans [11] = experiment: Synergistic antifungal activity against Candida albicans ATCC 24433 assessed as SDS MIC incubated for 48 hrs by checker board assay; type: functional
Candida albicans [12] = experiment: Synergistic antifungal activity against Candida albicans ATCC 24433 overexpressing ADCDR1-GFP assessed as fractional inhibitory concentration index incubated for 48 hrs in presence of caspofungin by checker board assay; type: functional
Candida [13] = experiment: Upregulation of ARG2 gene expression in Candida cells; type: functional, cell-based
Candida albicans [14] = experiment: Antifungal activity against Candida albicans SN152 harboring CAS5 mutant assessed as inhibition of fungal growth by broth microdilution method; type: functional
[Candida] auris [15] = Synergistic antifungal activity against Candida auris CBS10913 assessed as inhibition of fungal growth incubated for 48 hrs in presence of Congo red by checker board assay; type: functional; conditions: Candidozyma auris
Candida albicans [16] = experiment: Synergistic antifungal activity against wild type Candida albicans SN152 assessed as Amphotericin B MIC incubated for 48 hrs by checker board assay; type: functional
Candida [17] = experiment: Upregulation of CPA1 gene expression in Candida cells; type: functional, cell-based
Candida [18] = experiment: Downregulation of CPH1 gene expression in Candida cells; type: functional, cell-based
Candida albicans [19] = experiment: Synergistic antifungal activity against Candida albicans ATCC 24433 assessed as Calcoflour White MIC incubated for 48 hrs by checker board assay; type: functional
Candida albicans [20] = experiment: Antifungal activity against Candida albicans ATCC 24433 overexpressing transporter protein F5 assessed as inhibition of fungal growth by broth microdilution method; type: functional
Candida albicans [21] = experiment: Synergistic antifungal activity against wild type Candida albicans SN152 assessed as fractional inhibitory concentration index incubated for 48 hrs in presence of Caspofungin by checker board assay; type: functional
Candida [22] = experiment: Downregulation of RBT1 gene expression in Candida cells; type: functional, cell-based
Candida [23] = experiment: Downregulation of CDC42 gene expression in Candida cells; type: functional, cell-based
Candida [24] = experiment: Downregulation of PGA13 gene expression in Candida cells; type: functional, cell-based
Candida [25] = experiment: Upregulation of ARG5 gene expression in Candida cells; type: functional, cell-based
Candida [26] = experiment: Downregulation of CLN3 gene expression in Candida cells; type: functional, cell-based
Candida albicans [27] = experiment: Synergistic antifungal activity against wild type Candida albicans SN152 assessed as fractional inhibitory concentration index incubated for 48 hrs in presence of fluconazole by checker board assay; type: functional
Candida [28] = experiment: Upregulation of VPH2 gene expression in Candida cells; type: functional, cell-based
Candida [29] = experiment: Downregulation of CCT3 gene expression in Candida cells; type: functional, cell-based
[Candida] auris [30] = Antifungal activity against Candida auris 118 assessed as inhibition of fungal growth by broth microdilution method; type: functional; conditions: Candidozyma auris
Candida [31] = experiment: Downregulation of PRS5 gene expression in Candida cells; type: functional, cell-based
Cell membrane = experiment: Disruption of membrane integrity in Candida auris CBS10913 assessed as cell shrinkage and lysis by measuring leakage of intracellular material measured after 6 hrs by SEM analysis; conditions: Candidozyma auris
Candida albicans [32] = experiment: Inhibition of drug efflux in Candida albicans ATCC 24433 overexpressing AD(1-8)u- assessed as […] in nile red efflux incubated for 30 mins by flow cytometry; type: functional

With `O=[N+]([O-])/C=C/c1ccc(O)cc1` the Activity (Candida albicans [1]) was “Active”, the Activity (Candida [2]) was “Active” and the MIC (Candida parapsilosis [3]) was 1 µg/mL. For the same compound, the MIC (Candida albicans [4]) was 0.0625 µg/mL, the “fractional inhibitory concentration index (FICI)” value ([Candida] auris [5]) was 0.5 and the Activity (Candida [6]) was “Active”. For the same compound, the MIC (Candida albicans [7]) was 0.0312 µg/mL, the MIC (Candida albicans [8]) was 0.25 µg/mL and the MIC (Candida parapsilosis [9]) was 0.0312 µg/mL. For the same compound, the “fractional inhibitory concentration index (FICI)” value ([Candida] auris [10]) was 0.3125, the MIC (Candida albicans [11]) was 12.5 µg/mL and the “fractional inhibitory concentration index (FICI)” value (Candida albicans [12]) was under 0.5. For the same compound, the Activity (Candida [13]) was “Active”, the MIC80 (Candida albicans [14]) was 2 µg/mL (≈ 12.1 µM) and the MIC ([Candida] auris [15]) was 0.125 µg/mL. For the same compound, the MIC (Candida albicans [16]) was 0.25 µg/mL, the Activity (Candida [17]) was “Active” and the Activity (Candida [18]) was “Active”. For the same compound, the MIC (Candida albicans [19]) was 12.5 µg/mL, the MIC80 (Candida albicans [20]) was 2 µg/mL (≈ 12.1 µM) and the “fractional inhibitory concentration index (FICI)” value (Candida albicans [21]) was 0.257. For the same compound, the Activity (Candida [22]) was “Active”, the Activity (Candida [23]) was “Active” and the Activity (Candida [24]) was “Active”. The Activity (Candida [25]) was “Active”, the Activity (Candida [26]) was “Active” and the “fractional inhibitory concentration index (FICI)” value (Candida albicans [27]) was 0.25. The Activity (Candida [28]) was “Active”, the Activity (Candida [29]) was “Active” and the MIC80 ([Candida] auris [30]) was 4 µg/mL (≈ 24.2 µM). For the same compound, the Activity (Candida [31]) was “Active”, the Activity (Cell membrane) was “Active” and the inhibition (Candida albicans [32]) was “Active”.
